Assay results from US9889146B2, “Benzoxaborole compounds and uses thereof” (priority 2012, dated 2018).
Values after ≈ are worked out from the molar mass of the structure shown. “Also recorded” adds a separate entry of the source. Like-named read-outs stand apart in the source and are kept apart here.

What was measured:
[1] = tested on: E. coli clinical isolates from subject E. coli 1; assay: GSK2251052 MIC of clinical isolates, subject E. coli 1; format: cell-based; details: Escherichia coli, read-out: GSK2251052 MIC GSK results
Experimental: The E. coli and P. mirabilis strains were cultured on Trypticase Soy Agar/5% blood plates (Becton Dickinson BBL), in cation adjusted Mueller-Hinton II Broth, or in M9 minimal salts (Becton Dickinson) broth containing 0.4% glucose and 200 uM MgSO4. L-Norvaline (Sigma-Aldrich) was prepared at a concentration of 6.4 mg/ml in […], in a final volume of approx 0.5 ml, and stored at −20° C. until required.
Minimum inhibitory concentrations (MICs) were determined using the CLSI (Clinical and Laboratory Standards Institute, formerly NCCLS) recommended broth microdilution methodology [NCCLS, 2003] using defined media.

[2] = tested on: Morganella morganii (AmpC); assay: microbe, parasite or virus in culture; format: cell-based; details: Morganella morganii
[3] = tested on: Enterobacter cloacae (AmpC); assay: microbe, parasite or virus in culture; format: cell-based; details: Enterobacter cloacae
Klebsiella spp. (WT) = assay: microbe, parasite or virus in culture; format: cell-based; details: Klebsiella spp. (WT)
[4] = tested on: Enterobacter aerogenes (AmpC); assay: microbe, parasite or virus in culture; format: cell-based; details: Klebsiella aerogenes
Klebsiella spp. (KPC) = assay: microbe, parasite or virus in culture; format: cell-based; details: Klebsiella
[5] = tested on: E. coli 1162222 (standard strain) and clinical isolate 1a of E. coli; assay: Frequency of spontaneous resistance to GSK2251052 in the presence of norvaline; format: cell-based, Escherichia coli
Experimental: Clinical strains of Escherichia coli and Proteus mirabilis isolated from the above-described clinical trial study (Table 12), along with other E. coli strains were used to measure the suppression of the emergence of resistant bacterial strains in vitro and to determine the susceptibility of these GSK2251052 resistant bacterial isolates to norvaline.
GSK2251052 and norvaline were prepared at a concentration of 6.4 mg/mL (free base) in 100% DMSO and 100% water respectively, aliquoted in 0.5 mL individual stocks, and stored at −20° C. until required.
Plates were poured and left to cool and solidify.
Cultures were prepared by inoculating broth with a bacterial suspension in saline, prepared from plates derived from individual colonies. For each organism, 100 mL of CAMHB was inoculated with 5 mL of a bacterial suspension with turbidity equivalent to 0.5 McFarland. These cultures were incubated on an orbital shaker at 37° C. until the broth was visibly turbid (approximately 3 hours). Following incubation, cultures were centrifuged at 11,000 g for 10 min at 4° C. The culture media was then decanted and cell pellets were resuspended to an appropriate cell concentration in fresh CAMHB or M9. The ratio of OD625 to CFU/mL used to approximate culture size is 0.1:1.0×10^8. Targeted E. coli cell concentrations were 2×10^9 CFU/mL.
Viable counts were performed to determine the concentration of the initial test inoculum using the following steps: 1) ten-fold serial dilutions of each sample were prepared; 2) three 20 μL aliquots from wells corresponding to 10^−5, […], 10^−7 and 10^−8 dilutions were plated onto the appropriate agar plates; 3) the plates were incubated overnight at 35° C. and counts were performed at the dilution that provided distinguishable colonies; 4) an average of the three aliquots was used to determine the number of colony forming units (CFU) in the original sample.
In addition, 100 μL of each cell suspension was spread onto the surface of plates containing the appropriate multiple of MIC concentration of compound and a control agar plate containing no compound. Plates were incubated at 35° C. in ambient air.
Colonies were counted after 24, 48 and 72 hours. […] In order to confirm their resistance phenotype, the susceptibility of these isolates to the selecting agent was tested by broth microdilution methodology.
The frequency of spontaneous resistance was calculated by dividing the total number of resistant colonies growing on plates containing antibiotic by the total number of colony forming units plated. In order to confirm the resistance phenotype, the MIC of the selecting agent was determined against a representative number of colonies from each antibiotic concentration/strain combination. […] The total number of resistant colonies on the plates was extrapolated from the representative set tested.

P. aeruginosa = assay: In vitro activity against P. aeruginosa clinical isolates; format: cell-based; details: for % susceptible: P. aeruginosa, 2,008 clinical isolates, GSK2251052 based on potential susceptible breakpoint of ≦4 μg/mL
Experimental: GSK2251052 was tested for activity against P. aeruginosa, and its activity was compared to other antibiotics of known activity. The results are shown below in Tables 2a and 2b. Of 2,008 clinical isolates tested (from 2009-2010 subjects, of which 40% were from North America) greater than 90% were susceptible to GSK2251052 based on a potential susceptible breakpoint of ≦4 μg/mL.

[6] = read-out: susceptibility category of MIC90
[7] = Pseudomonas aeruginosa, P. aeruginosa clinical isolates

Q: Which results are given for NC[C@H]1OB(O)c2c(OCCCO)cccc21 [GSK2251052, (S)-3-aminomethyl-7-(3-hydroxy-propoxy)-3h-benzo[c][1,2]oxaborol-1-ol]?
A: MIC ([1]; 24 h, subject E. Coli 1, day 1, first line, no LeuRS change): 0.5 µg/mL; MIC ([1]; 24 h, subject E. Coli 1, day 1, second line, no LeuRS change): 0.25 µg/mL; MIC ([1]; 48 h): 16 µg/mL; MIC ([1]; 72 h): 16 µg/mL; MIC ([1]; 96 h): 16 µg/mL; MIC90 [2]: 2 µg/mL (≈ 8.44 µM); MIC90 [2, 6]: < 4 µg/mL; MIC90 [3]: 0.5 µg/mL (≈ 2.11 µM); MIC90 [3, 6]: < 4 µg/mL; MIC90 (Klebsiella spp. (WT); 159 isolates, read-out: MIC90): 1 µg/mL (≈ 4.22 µM); MIC90 (Klebsiella spp. (WT); GSK2251052 breakpoint, read-out: susceptibility category of MIC90): < 4 µg/mL; MIC90 [4]: 1 µg/mL (≈ 4.22 µM); MIC90 [4, 6]: < 4 µg/mL; MIC90 (Klebsiella spp. (KPC)): 2 µg/mL (≈ 8.44 µM); MIC90 (Klebsiella spp. (KPC); [6]): < 4 µg/mL; Frequency of Resistant to GSK2251052 (4 μg/mL) ([5]; CAMH Agar, E. coli Isolate 1a, Norvaline 0 μg/mL): 6.3 × 10^−8; Frequency of Resistant to GSK2251052 (4 μg/mL) ([5]; CAMH Agar, E. coli Isolate 1a, Norvaline 2 μg/mL): 7.6 × 10^−8; Frequency of Resistant to GSK2251052 (4 μg/mL) ([5]; CAMH Agar, E. coli Isolate 1a, Norvaline 4 μg/mL): 4.7 × 10^−8; Frequency of Resistant to GSK2251052 (4 μg/mL) ([5]; CAMH Agar, E. coli Isolate 1a, Norvaline 8 μg/mL): 6.3 × 10^−8; Frequency of Resistant to GSK2251052 (4 μg/mL) ([5]; CAMH Agar, E. coli Isolate 1a, Norvaline 16 μg/mL): 4.5 × 10^−8; Frequency of Resistant to GSK2251052 (4 μg/mL) ([5]; CAMH Agar, E. coli Isolate 1a, Norvaline 32 μg/mL): 5.0 × 10^−8; Frequency of Resistant to GSK2251052 (4 μg/mL) ([5]; CAMH Agar, E. coli Isolate 1a, Norvaline 64 μg/mL): 5.3 × 10^−8; Frequency of Resistant to GSK2251052 (4 μg/mL) ([5]; CAMH Agar, E. coli baseline strain, Norvaline 0 μg/mL): 1.2 × 10^−7; Frequency of Resistant to GSK2251052 (4 μg/mL) ([5]; CAMH Agar, E. coli baseline strain, Norvaline 2 μg/mL): 5.0 × 10^−8; Frequency of Resistant to GSK2251052 (4 μg/mL) ([5]; CAMH Agar, E. coli baseline strain, Norvaline 4 μg/mL): 1.2 × 10^−7; Frequency of Resistant to GSK2251052 (4 μg/mL) ([5]; CAMH Agar, E. coli baseline strain, Norvaline 8 μg/mL): 6.8 × 10^−8; Frequency of Resistant to GSK2251052 (4 μg/mL) ([5]; CAMH Agar, E. coli baseline strain, Norvaline 16 μg/mL): 6.1 × 10^−8; Frequency of Resistant to GSK2251052 (4 μg/mL) ([5]; CAMH Agar, E. coli baseline strain, Norvaline 32 μg/mL): 1.1 × 10^−7; Frequency of Resistant to GSK2251052 (4 μg/mL) ([5]; CAMH Agar, E. coli baseline strain, Norvaline 64 μg/mL): 9.3 × 10^−8; Frequency of Resistant to GSK2251052 (4 μg/mL) ([5]; M9 Agar, E. coli Isolate 1a, Norvaline 0 μg/mL): 3.8×10^−7; Frequency of Resistant to GSK2251052 (4 μg/mL) ([5]; M9 Agar, E. coli Isolate 1a, Norvaline 2 μg/mL): 4.8×10^−8; Frequency of Resistant to GSK2251052 (4 μg/mL) ([5]; M9 Agar, E. coli Isolate 1a, Norvaline 4 μg/mL): <1.7 × 10^−9; Frequency of Resistant to GSK2251052 (4 μg/mL) ([5]; M9 Agar, E. coli Isolate 1a, Norvaline 8 μg/mL): <1.7 × 10^−9; Frequency of Resistant to GSK2251052 (4 μg/mL) ([5]; M9 Agar, E. coli Isolate 1a, Norvaline 16 μg/mL): <1.7 × 10^−9; Frequency of Resistant to GSK2251052 (4 μg/mL) ([5]; M9 Agar, E. coli Isolate 1a, Norvaline 32 μg/mL): <1.7 × 10^−9; Frequency of Resistant to GSK2251052 (4 μg/mL) ([5]; M9 Agar, E. coli Isolate 1a, Norvaline 64 μg/mL): <1.7 × 10^−9; Frequency of Resistant to GSK2251052 (4 μg/mL) ([5]; M9 Agar, E. coli baseline strain, Norvaline 0 μg/mL): 4.9×10^−8; Frequency of Resistant to GSK2251052 (4 μg/mL) ([5]; M9 Agar, E. coli baseline strain, Norvaline 2 μg/mL): 2.8 × 10^−8; Frequency of Resistant to GSK2251052 (4 μg/mL) ([5]; M9 Agar, E. coli baseline strain, Norvaline 4 μg/mL): 2.0 × 10^−8; Frequency of Resistant to GSK2251052 (4 μg/mL) ([5]; M9 Agar, E. coli baseline strain, Norvaline 8 μg/mL): 6.0 × 10^−8; Frequency of Resistant to GSK2251052 (4 μg/mL) ([5]; M9 Agar, E. coli baseline strain, Norvaline 16 μg/mL): 3.0 × 10^−9; Frequency of Resistant to GSK2251052 (4 μg/mL) ([5]; M9 Agar, E. coli baseline strain, Norvaline 32 μg/mL): <1.0 × 10^−9; Frequency of Resistant to GSK2251052 (4 μg/mL) ([5]; M9 Agar, E. coli baseline strain, Norvaline 64 μg/mL): <1.0 × 10^−9; decrease in the frequency of resistance to GSK2251052 ([5]; M9 minimal media, E. coli baseline strain, no norvaline versus >32 μg/mL): ≥ 50 fold; decrease in the frequency of spontaneous resistance ([5]; M9 minimal media, E. coli clinical isolate from subject E. coli 1, no norvaline versus >4 μg/mL): over 200 fold; effect of norvaline on frequency of resistance in rich media ([5]; both E. coli strains, rich media, GSK2251052 4 μg/mL, norvaline up to 64 μg/mL): remained the same; also recorded: did not change the frequency of spontaneous resistance; frequency of resistance to GSK2251052 ([5]; minimal media, E. coli clinical isolate 1a, norvaline ≧4 μg/mL): < 1.7×10^−9; reduction of the appearance of mutants ([5]; minimal media, baseline E. coli strain, norvaline at 8 μg/mL): 10 fold; frequency of resistance to GSK2251052 ([5]; minimal media, baseline E. coli strain, norvaline ≧32 μg/mL): < 1×10^−9; MIC Range (P. aeruginosa; P. aeruginosa clinical isolates): 0.06 to 64 µg/mL; % susceptible (P. aeruginosa): greater than 90%; % susceptible (P. aeruginosa; listed as GSK2250152): 92.8%; MIC50 (P. aeruginosa; [7]): 2 µg/mL (≈ 8.44 µM); MIC90 (P. aeruginosa; [7]): 4 µg/mL (≈ 16.9 µM)
